Data on 1 compound can be found in patent publication US20060025458A1, “Alkylammonium compounds as antifungal and antitrypanosomal agents” (University of Connecticut, priority 2004, published 2006).

In test [1] the target is T1, recombinant PtdSer decarboxylase PfPsd1 (Plasmodium falciparum, UniProt Q9GPP8).
T1 construct: made in house
T1 sequence (Q9GPP8 1-362): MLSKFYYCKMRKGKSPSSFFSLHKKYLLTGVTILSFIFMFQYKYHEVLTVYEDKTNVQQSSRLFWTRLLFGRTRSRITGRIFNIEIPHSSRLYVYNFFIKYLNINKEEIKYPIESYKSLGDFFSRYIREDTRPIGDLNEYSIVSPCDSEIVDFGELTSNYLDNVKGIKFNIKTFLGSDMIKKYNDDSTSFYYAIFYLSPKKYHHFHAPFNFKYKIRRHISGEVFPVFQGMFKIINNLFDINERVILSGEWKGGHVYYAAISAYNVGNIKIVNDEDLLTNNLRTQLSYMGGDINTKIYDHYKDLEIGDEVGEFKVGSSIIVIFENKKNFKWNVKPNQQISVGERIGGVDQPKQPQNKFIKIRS
The test is described as follows: PtdSer decarboxylase assay with recombinant enzyme. Format: biochemical. The settings on record: increasing concentrations of G25. The method, then: FIG. 11A. Effect of G25 on the activity of purified recombinant PfPsd1 enzyme. PfPsd1 activity was determined as described in Materials and Methods by measuring the amount of [^14C]-PtdEtn formed from PtdSer. TLC analysis of PfPsd1-mediated conversion of PtdSer into PtdEtn in the absence and presence of increasing concentrations of G25 was performed.
FIG. 11B. Values are means±standard deviation of triplicate determination of two independent experiments.
Recombinant P. falciparum PtdSer decarboxylase was purified as described by Baunaure and colleagues (Baunaure, et al., 2004) The assay mixture (0.3 ml) contained 0.1 M potassium phosphate buffer (pH 6.8), 0.06% Triton X-100 (w/v), 200 μM L-[dipalmitoyl]phosphatidyl[3-^14C]-serine (1.35 mCi/mmol; Amersham), and the enzyme fraction containing recombinant protein of P. falciparum (240 μg). After incubation at 37° C. for 1 hour, the reaction was terminated by the addition of 400 μl chloroform. Chloroform-soluble materials were extracted, dried, and then dissolved in chloroform/methanol (9:1, v/v). Phospholipids were separated by Thin Layer Chromatography as described above. The radioactive phospholipids were localized and identified using appropriate standards, and radioactivity was quantified using the phosphoimager analyzer (Molecular Dynamics).
G25 inhibits the activity of recombinant P. falciparum PtdSer decarboxylase. […]

The test system of test [2] is S. cerevisiae wild type and knockouts of PtdCho biosynthesis genes. The test is described as follows: Plate growth limiting dilution assay of yeast phospholipid mutants with G25. In kind it is cell-based, Saccharomyces cerevisiae. The settings on record: 5 μM G25, plate assay. The method, then:
FIG. 9. Sensitivity to G25 of wild type and mutants affected in different steps of PtdCho biosynthesis. Plate growth limiting dilution assays were performed as described in Materials and Methods in the absence or the presence of 5 μM of G25. The strains and genes deleted in the strains used are described in “Material and Methods”.
Strains and Growth Conditions: Wild-type (BY4741: Mata his3Δ1 leu2Δ0 met15Δ0 ura3Δ0) and mutant (hnm1Δ, psd1Δ, cki1Δ, pem1Δ, ept1Δ, cpt1Δ, eki1Δ, psd2Δ, pct1Δ, ect1Δ, pem2Δ) S. cerevisiae strains used in this study were purchased from Research Genetics (Invitrogen, USA). These strains were grown on YPD (1% yeast extract, 2% dextrose and 2% peptone) or synthetic complete medium (SD, 1.7% yeast nitrogen base, 5% ammonium sulfate and 2% dextrose). The Nigerian strain of P. falciparum was propagated in human red blood cells at 4% hematocrit by the method of Trager and Jensen (1976). Plate growth assays were performed by growing wild-type and mutant yeast strains in YPD to mid-log phase. Cultures were serially diluted 1:10 starting with a density of 3×10^7 cells/ml. The growth of cells was monitored by spotting 3 μl of each dilution onto solid medium in the absence or presence of 5 μM of G25.
Sensitivity of mutants affected in phospholipid metabolism to choline analogs. […] However, the steps in the phospholipid biosynthesis pathways that are specifically targeted by these compounds are not yet known. To assess whether the mode of action of G25 is linked to disruption of phospholipid metabolism, yeast was used as a surrogate system to compare the sensitivity to G25 of the wild-type strain and eleven individual knockouts in the CDP-choline, CDP-ethanolamine and CDP-DAG pathways. […] No resistance was conferred by loss of the PtdEtn methyltransferases, Pem1 and Pem2, or the enzymes of the CDP-ethanolamine pathway. Furthermore, unlike psd1[…] strain, loss of the Golgi/vacuole PtdSer decarboxylase, Psd2, which synthesizes 5% of the PtdEtn pool only, had no effect on G25 sensitivity.

Test [3] has as its system choline transport in the wild-type strain of S. cerevisiae. The test is described as follows: [methyl-3H]-choline uptake in wild-type S. cerevisiae. Format: cell-based, Saccharomyces cerevisiae. The method, then:
Uptake Assays: Yeast strains were grown in synthetic complete medium supplemented as required to maintain cell growth to an optical density of 0.55-0.65 at 600 nm. Cells were harvested by centrifugation at 3,200×g for 10 min at 4° C., washed twice in cold PBS and resuspended in nitrogen-free medium (SD without ammonium sulfate). […] After 3 min incubation at 30° C. with shaking, transport was immediately stopped by filtration through Whatman GF/C glass microfiber paper. The filters were washed three times with 5 ml ice-cold PBS, air dried, and analyzed in a scintillation counter. For time course uptake, 3-4×10^7 cells were incubated at 30° C. in 1 ml of nitrogen-free medium in the presence of 25 nM [^3H]-T16 (69 Ci/mmol) for different time periods (1, 2, 3, 4, 5, 7, 10 and 15 min) after which 5 ml of cold PBS was added to stop the reaction. Kinetic parameters were determined after 4 min of incubation at 30° C. in the presence of [^3H]-T16 at concentrations ranging from 25 nM to 75 μM (69 Ci - 23 mCi/mol). The samples were centrifuged at 4° C. for 10 min at 1,200×g, the supernatants were discarded and the cells were then resuspended in 5 ml of cold PBS. The reaction was terminated by filtering the cell suspension through GF/C membranes that were pretreated with 15 ml of 0.05% polyethyleneimine (PEI). The filters were washed twice with 5 ml of cold PBS, air dried, and analyzed in a scintillation counter. The cellular accumulation ratio (CAR) was calculated as previously described for T16 and G25 (Biagini, et al., 2003; Wengelnik, et al., 2002).

In test [4] the test system is C. albicans strain BWP17. The test is described as follows: Growth inhibition of C. albicans in vitro. Format: cell-based, Candida albicans. Particulars: read-out: IC50, C. albicans proliferation. The method, then:
G15, E24 and C35 inhibited at higher concentrations (>10 μM).

As to `C[N+]1(CCCCCCCCCCCCCCCC[N+]2(C)CCCC2)CCCC1.[Br-].[Br-]` [G25, 1,16-hexadecamethylenebis[N-methylpyrrolidinium]dibromide], in test [1], the “activity of recombinant PfPsd1” value is “steady decrease in the activity”. In test [2], the “effect of loss of Psd2 on sensitivity” value is “no effect”; the “resistance conferred by loss of Cki1, Cpt1, Pct1 and Hnm1 (CDP-choline pathway)” value was “substantial resistance”; the “resistance conferred by loss of Pem1, Pem2 or CDP-ethanolamine pathway enzymes” value is listed as “No resistance”; the “resistance of psd1 deletion strain” value is listed as “highly resistant”. For the same compound, the “inhibition of choline transport” value in test [3] (20-fold excess over [methyl-3H]-choline) is reported as 50%. In addition, in test [3] (100-fold excess over [methyl-3H]-choline), the “inhibition of choline transport” value came to 84%. In addition, the IC50 in test [4] was around 5 µM.
